Reference: paper PMC7587356, “High-Throughput Screening for Inhibitors of the SARS-CoV-2 Protease Using a FRET-Biosensor” (Molecules, 2020)
Counter-ions that a name gives are not always drawn. Like-named read-outs stand apart in the source and are kept apart here.

Molecular target: SARS-CoV-2 3CLpro (Severe acute respiratory syndrome coronavirus 2, UniProt P0DTD1)
Assay: biochemical
Assay type: biochemical
Parameters: Replicate_1 / Replicate_2 / mean / mean (LOPAC_screen_w_protease): unit not given here
Details: for inhibition at 5 µM: 4 h; for mean (LOPAC screen with protease) / Replicate_1 (LOPAC screen with protease) / Replicate_2 (LOPAC screen with protease): primary screen at 5 µM
[1] = sheet LOPAC_screen_w_protease, primary screen with protease, compound at 5 µM, mean of two replicates, read-out: mean
[2] = sheet LOPAC_screen_w_protease, primary screen with protease, compound at 5 µM, replicate 1, read-out: Replicate_1
[3] = sheet LOPAC_screen_w_protease, primary screen with protease, compound at 5 µM, replicate 2, read-out: Replicate_2
[4] = LOPAC1280 primary screen with protease, 5 µM compound, mean of two replicates
[5] = LOPAC1280 primary screen with protease, 5 µM compound, replicate 1
[6] = LOPAC1280 primary screen with protease, 5 µM compound, replicate 2
[7] = sheet LOPAC_screen_w_protease, LOPAC1280 primary screen at 5 µM, with protease, mean of the two replicates, read-out: mean
[8] = sheet LOPAC_screen_w_protease, LOPAC1280 primary screen at 5 µM, with protease, replicate 1, read-out: Replicate_1
[9] = sheet LOPAC_screen_w_protease, LOPAC1280 primary screen at 5 µM, with protease, replicate 2, read-out: Replicate_2
[10] = sheet LOPAC_screen_w_protease, primary screen of LOPAC1280 at 5 µM with protease, mean of the two replicates
[11] = sheet LOPAC_screen_w_protease, primary screen of LOPAC1280 at 5 µM with protease, replicate 1
[12] = sheet LOPAC_screen_w_protease, primary screen of LOPAC1280 at 5 µM with protease, replicate 2
[13] = sheet LOPAC_screen_w_protease, mean of two replicates
[14] = sheet LOPAC_screen_w_protease, replicate 1
[15] = sheet LOPAC_screen_w_protease, replicate 2
[16] = sheet LOPAC_screen_w_protease, primary screen with protease, mean of two replicates
[17] = sheet LOPAC_screen_w_protease, primary screen with protease, replicate 1
[18] = sheet LOPAC_screen_w_protease, primary screen with protease, replicate 2
[19] = LOPAC1280 primary screen with protease, 5 µM compound, replicate 1, read-out: Replicate_1 (LOPAC_screen_w_protease)
[20] = LOPAC1280 primary screen with protease, 5 µM compound, replicate 2, read-out: Replicate_2 (LOPAC_screen_w_protease)
[21] = LOPAC1280 primary screen with protease, 5 µM compound, mean of the two replicates
[22] = sheet LOPAC_screen_w_protease, LOPAC1280 at 5 µM, mean of two replicates
[23] = sheet LOPAC_screen_w_protease, LOPAC1280 at 5 µM, replicate 1
[24] = sheet LOPAC_screen_w_protease, LOPAC1280 at 5 µM, replicate 2

Compound: COC1(C2=NCCN2)COc2ccccc2O1.Cl (centres unmarked) [RX 821002 hydrochloride]
- mean (sheet LOPAC_screen_w_protease, primary screen with protease, 5 µM, mean of two replicates): 0.0583
- Replicate_1 (sheet LOPAC_screen_w_protease, primary screen with protease, 5 µM, replicate 1): -1.138
- Replicate_2 (sheet LOPAC_screen_w_protease, primary screen with protease, 5 µM, replicate 2): 1.255

Compound: OC(CN1CCC(Cc2ccc(F)cc2)CC1)c1ccc(Cl)cc1 (centres unmarked) [Eliprodil]
- inhibition at 5 µM [1]: 2.62%
- inhibition at 5 µM [2]: 2.73%
- inhibition at 5 µM [3]: 2.52%

Compound: NCCCC(=O)O [GABA]
- mean (LOPAC_screen_w_protease) [4]: 1.638
- Replicate_1 (LOPAC_screen_w_protease) [5]: 1.648
- Replicate_2 (LOPAC_screen_w_protease) [6]: 1.628

Compound: Clc1ccccc1C(c1ccccc1)(c1ccccc1)n1ccnc1 [Clotrimazole]
- inhibition at 5 µM (read-out: Replicate_1): 3.08%
- inhibition at 5 µM (read-out: Replicate_2): 3.07%
- inhibition at 5 µM (read-out: mean): 3.07%

Compound: CCn1c(=O)c2nc(-c3ccccc3)[nH]c2n(CC)c1=O [1,3-Diethyl-8-phenylxanthine]
- inhibition at 5 µM (sheet LOPAC_screen_w_protease, primary screen of LOPAC1280 at 5 µM with protease, mean of the two replicates, read-out: mean): 3.47%
- inhibition at 5 µM (sheet LOPAC_screen_w_protease, primary screen of LOPAC1280 at 5 µM with protease, replicate 1, read-out: Replicate_1): 3.04%
- inhibition at 5 µM (sheet LOPAC_screen_w_protease, primary screen of LOPAC1280 at 5 µM with protease, replicate 2, read-out: Replicate_2): 3.9%

Compound: CN1CCN(C2Cc3ccccc3Sc3ccc(Cl)cc32)CC1.O=C(O)/C=C\C(=O)O (racemic) [(±)-Octoclothepin maleate]
- mean (sheet LOPAC_screen_w_protease, LOPAC1280 primary screen with protease, 5 µM compound, mean of the two replicates): 4.928
- Replicate_1 (sheet LOPAC_screen_w_protease, LOPAC1280 primary screen with protease, 5 µM compound, replicate 1): 3.609
- Replicate_2 (sheet LOPAC_screen_w_protease, LOPAC1280 primary screen with protease, 5 µM compound, replicate 2): 6.247

Compound: C=CCc1ccccc1OCC(O)CNC1(C)CCC(C(C)(C)NC(=O)CBr)CC1 (centres unmarked) [Bromoacetyl alprenolol menthane]
- inhibition at 5 µM (sheet LOPAC_screen_w_protease, LOPAC1280 at 5 µM, mean of two replicates, read-out: mean): 1.3%
- inhibition at 5 µM (sheet LOPAC_screen_w_protease, LOPAC1280 at 5 µM, replicate 1, read-out: Replicate_1): 0.0303%
- inhibition at 5 µM (sheet LOPAC_screen_w_protease, LOPAC1280 at 5 µM, replicate 2, read-out: Replicate_2): 2.58%

Compound: CC(C)N(CCC(C(N)=O)(c1ccccc1)c1ccccn1)C(C)C (centres unmarked) [Disopyramide phosphate]
- inhibition at 5 µM [1]: 2.74%
- inhibition at 5 µM [2]: 4.07%
- inhibition at 5 µM [3]: 1.41%

Compound: O=C(O)CP(=O)(O)O [Phosphonoacetic acid]
- inhibition at 5 µM [7]: 0.854%
- inhibition at 5 µM [8]: 0.755%
- inhibition at 5 µM [9]: 0.954%

Compound: CCCC(=O)NCCc1c2n(c3ccc(OC)cc13)Cc1ccccc1-2 [IIK7]
- mean [10]: 3.902
- Replicate_1 [11]: 5.727
- Replicate_2 [12]: 2.078

Compound: Cl.Clc1ccc(N2CCN(Cc3c[nH]c4ncccc34)CC2)cc1 [L-745,870 hydrochloride]
- mean (LOPAC_screen_w_protease) [4]: 1.375
- Replicate_1 (LOPAC_screen_w_protease) [5]: 2.129
- Replicate_2 (LOPAC_screen_w_protease) [6]: 0.6216

Compound: Cl.Cl.Oc1ccc2c3c1O[C@H]1c4[nH]c5c(c4C[C@@]4(O)[C@@H](C2)N(CC2CC2)CC[C@]314)C[C@@]1(O)[C@H]2Cc3ccc(O)c4c3[C@@]1(CCN2CC1CC1)[C@H]5O4 [nor-Binaltorphimine dihydrochloride]
- mean (LOPAC screen with protease) [13]: 34.0021
- Replicate_1 (LOPAC screen with protease) [14]: 34.0521
- Replicate_2 (LOPAC screen with protease) [15]: 33.9521

Compound: CCCCCCCCCCC/C=C\C(C)(C)/C=C\CCCC(=O)O [7,7-Dimethyl-(5Z,8Z)-eicosadienoic acid]
- mean [16]: 2.303
- Replicate_1 [17]: 4.092
- Replicate_2 [18]: 0.5145

Compound: CN1C[C@H](C(=O)N[C@]2(C)O[C@@]3(O)[C@@H]4CCCN4C(=O)[C@H](Cc4ccccc4)N3C2=O)C[C@@H]2c3cccc4[nH]cc(c34)C[C@H]21 [Dihydroergotamine methanesulfonate]
- inhibition at 5 µM [19]: 2.09%
- inhibition at 5 µM [20]: 1.52%
- mean (LOPAC_screen_w_protease) [21]: 1.805

Compound: O=c1[nH]c2ccccc2n1CCCN1CCN(C(c2ccccc2)c2ccccc2)CC1 [Oxatomide]
- inhibition at 5 µM (sheet LOPAC_screen_w_protease, LOPAC1280 primary screen with protease, 5 µM compound, mean of the two replicates, read-out: mean): 5.24%
- inhibition at 5 µM (sheet LOPAC_screen_w_protease, LOPAC1280 primary screen with protease, 5 µM compound, replicate 1, read-out: Replicate_1): 4.62%
- inhibition at 5 µM (sheet LOPAC_screen_w_protease, LOPAC1280 primary screen with protease, 5 µM compound, replicate 2, read-out: Replicate_2): 5.86%

Compound: O=C(O)C=Cc1c[nH]cn1 [4-Imidazoleacrylic acid]
- mean [22]: 0.9588
- Replicate_1 [23]: 1.559
- Replicate_2 [24]: 0.3591

Compound: Nc1ncnc2c1ncn2[C@@H]1O[C@H](C(=O)NC2CC2)[C@@H](O)[C@H]1O [5'-(N-Cyclopropyl)carboxamidoadenosine]
- mean (LOPAC_screen_w_protease) [4]: 1.624
- Replicate_1 (LOPAC_screen_w_protease) [5]: 1.713
- Replicate_2 (LOPAC_screen_w_protease) [6]: 1.536

Compound: Cl.NNC(N)=O [Semicarbazide hydrochloride]
- mean (LOPAC_screen_w_protease) [4]: 1.574
- Replicate_1 (LOPAC_screen_w_protease) [5]: 1.447
- Replicate_2 (LOPAC_screen_w_protease) [6]: 1.701

Compound: N.S=C(S)N1CCCC1 [Ammonium pyrrolidinedithiocarbamate]
- mean (LOPAC screen with protease) [13]: 72.0091
- Replicate_1 (LOPAC screen with protease) [14]: 73.369
- Replicate_2 (LOPAC screen with protease) [15]: 70.6492

Compound: CN1[C@@H]2CC[C@H]1C[C@@H](OC(c1ccccc1)c1ccccc1N)C2 (some centres unmarked) [Aminobenztropine]
- inhibition at 5 µM [1]: 3.04%
- inhibition at 5 µM [2]: 2.54%
- inhibition at 5 µM [3]: 3.53%

Compound: COC(=O)[C@@H](N)CCCN=C(N)N[N+](=O)[O-].Cl
- mean [10]: 3.268
- Replicate_1 [11]: 2.366
- Replicate_2 [12]: 4.171

Compound: CCN(CC)CCOC(=O)c1ccc(N)cc1 [Procaine hydrochloride]
- inhibition at 5 µM [19]: 1.06%
- inhibition at 5 µM [20]: 1.81%
- mean (LOPAC_screen_w_protease) [4]: 1.433

Compound: O=C1CCC(N2C(=O)c3ccccc3C2=O)C(=O)N1 (racemic) [(±)-Thalidomide]
- mean [22]: 1.21
- Replicate_1 [23]: 0.4169
- Replicate_2 [24]: 2.003

Compound: O=C(OCCN1CCOCC1)C1(c2ccccc2)CCCCC1 [PRE-084]
- mean [10]: 3.777
- Replicate_1 [11]: 2.6752
- Replicate_2 [12]: 4.879

Compound: Foliosidine
- mean [10]: 3.597
- Replicate_2 [12]: 2.375

Compound: CC1(C)NC(=O)N(c2ccc([N+](=O)[O-])c(C(F)(F)F)c2)C1=O [Nilutamide]
- inhibition at 5 µM [7]: 0.761%
- inhibition at 5 µM [8]: 2.22%
- inhibition at 5 µM [9]: -0.697%

Compound: COc1ccccc1N1CCN(CCN(C(=O)c2ccc(I)cc2)c2ccccn2)CC1.Cl [p-MPPI hydrochloride]
- mean (sheet LOPAC_screen_w_protease, primary screen with protease, compound at 5 µM, mean of two replicates): 3.1199
- Replicate_1 (sheet LOPAC_screen_w_protease, primary screen with protease, compound at 5 µM, replicate 1): 5.19
- Replicate_2 (sheet LOPAC_screen_w_protease, primary screen with protease, compound at 5 µM, replicate 2): 1.05

Compound: CCc1cc(Cl)c(O)c(C(=O)NC[C@@H]2CCCN2CC)c1OC.Cl [S-(-)-Eticlopride hydrochloride]
- mean (LOPAC_screen_w_protease) [21]: 2.005
- Replicate_1 (LOPAC_screen_w_protease) [5]: 2.376
- Replicate_2 (LOPAC_screen_w_protease) [6]: 1.635

Compound: Cl.O=C(O)C1CCCN(CCC=C(c2ccccc2)c2ccccc2)C1 (centres unmarked) [SKF 89976A hydrochloride]
- mean (sheet LOPAC_screen_w_protease, LOPAC1280 primary screen at 5 µM, with protease, mean of the two replicates): 0.532
- Replicate_1 (sheet LOPAC_screen_w_protease, LOPAC1280 primary screen at 5 µM, with protease, replicate 1): 1.548
- Replicate_2 (sheet LOPAC_screen_w_protease, LOPAC1280 primary screen at 5 µM, with protease, replicate 2): -0.4841

Compound: CCCCCCCCCCCCCCSCC(=O)O [Tetradecylthioacetic acid]
- inhibition at 5 µM (sheet LOPAC_screen_w_protease, LOPAC1280 primary screen at 5 µM, with protease, mean of two replicates, read-out: mean): -1.74%
- inhibition at 5 µM [8]: -1.66%
- inhibition at 5 µM [9]: -1.82%

Compound: CCCN(CC1CC1)c1nc(C)nc(Nc2c(Cl)cc(Cl)cc2Cl)c1Cl [NBI 27914]
- mean [16]: 2.264
- Replicate_1 [17]: 4.203
- Replicate_2 [18]: 0.3255

Compound: CC(C)Cc1ccc(C(C)C(=O)O)cc1 (racemic) [(±)-Ibuprofen]
- mean (LOPAC_screen_w_protease) [21]: 1.9945
- Replicate_1 (LOPAC_screen_w_protease) [5]: 3.023
- Replicate_2 (LOPAC_screen_w_protease) [6]: 0.9655

Compound: O=C[C@H](Cl)[C@@H](O)[C@H](O)[C@H](O)CO [2-Chloro-2-deoxy-D-glucose]
- mean (LOPAC_screen_w_protease) [21]: 1.752
- Replicate_1 (LOPAC_screen_w_protease) [5]: 1.144
- Replicate_2 (LOPAC_screen_w_protease) [6]: 2.361

Compound: C[n+]1cc2c3c(ccc2c2ccc4cc5c(cc4c21)OCO5)OCO3 [Sanguinarine chloride]
- inhibition at 5 µM (read-out: Replicate_1 (LOPAC screen with protease)): 46.2%
- inhibition at 5 µM (read-out: Replicate_2 (LOPAC screen with protease)): 43.3%
- inhibition at 5 µM (read-out: mean (LOPAC screen with protease)): 44.8%
